From article PMC12040169 (PLOS Biology, 2025)

Experiment: in vitro
Conditions: human, hela cells, % viability

Compound	viability at 28.5 h, 10 µM
CN(C)CCN(C)C(=O)c1ccc(-c2cc(C(F)(F)F)cc(C(F)(F)F)c2)nc1N(C)C [CBK106069]	97%
O=C(NCCc1cccs1)Nc1cc(F)ccc1F [CBK043935]	113%
CCCN(C(=O)OC(C)(C)C)C1CCc2[nH]c(=O)c(C#N)cc2C1 (stereo not shown) [CBK023470]	99.7%
CCOC(=O)C1(Cc2ccc(F)cc2F)CCCN(S(=O)(=O)CC)C1 (stereo not shown) [CBK307655]	92.6%
Cc1nn(C(C)CC(=O)Nc2ccnn2C(C)C)c(C)c1Cl (stereo not shown) [CBK281537]	95.8%
COc1ccc2[nH]c3c(c2c1)CCN[C@]31CCN(CCOc2ccc(F)cc2)C1 [CBK089876T]	73.6%
O=C(O)CCC(CCC(=O)O)C(=O)O [CBK260994]	95.1%
CCn1cc(NC(=O)CC(C)(O)c2ccccc2)ccc1=O (stereo not shown) [CBK304507]	91.7%
Cc1ccc(-n2ncc(C(=O)N3CCc4ccccc4C3)c2NC(=O)c2ccco2)cc1C [CBK267207]	100%
COc1ccc(-c2nc(NC(=O)CC#N)cnc2-c2ccc(F)cc2)cc1 [CBK037198]	104%
O=C(NCc1ccccc1)c1ccc2nc[nH]c2c1 [CBK143739]	91.9%
O=C1c2ccccc2C(=O)N1CCc1nc2c3c4c(sc3ncn2n1)CCCCC4 [CBK268327]	96.6%
COc1ccc(NS(=O)(=O)c2ccc3c(c2)oc(=O)c2cc(S(=O)(=O)Nc4ccc(OC)cc4)ccc23)cc1 [CBK268439]	104%
COc1ccc(Cn2c(=O)[nH]n(-c3ccccc3)c2=O)cc1F [CBK122772]	86.5%
COCc1nc(NCCCn2c(C)cccc2=O)cc(C2CCOC2)n1 (stereo not shown) [CBK306845]	90.9%
Cc1cccc(OCC(=O)N2CCN(S(=O)(=O)c3ccc([N+](=O)[O-])cc3)CC2)c1 [CBK264221]	89.9%
COc1ccccc1C(=O)N1CCC(Cc2ccccc2-c2ccccc2)(C(N)=O)CC1 [CBK285739]	96.4%
N#C/C(=C/c1cn(CCC(N)=O)c2ccccc12)c1ccc2c(c1)OCO2 [CBK267319]	90.2%
O=C(O)c1ccc2c(c1)C(=O)N(c1ccc(-c3ccc(N4C(=O)c5ccc(C(=O)O)cc5C4=O)cc3)cc1)C2=O [CBK261187]	99.3%
COc1cccc(-n2ncc(-c3cccnc3)n2)c1 [CBK112813]	89.9%
CC1CCCCN1C(=O)Cn1cnc2c(Cl)cc(Cl)cc2c1=O (stereo not shown) [CBK306149]	90.3%
CN1CCN(C(=O)C2CCN(CCCc3ccccc3)CC2)CC1 [CBK264326G]	96%

Compound	viability at 28.5 h, 10 µM
CCOC(=O)c1sc(NS(=O)(=O)Cc2ccccc2[N+](=O)[O-])nc1C [CBK047458]	98.5%
O=C(O)C1(Cc2ccc(-c3cccs3)cc2)CCNC1 (stereo not shown) [CBK281679]	90.8%
O=C(c1ccc(OC(F)(F)F)cc1)N1CCC2(CCCNC2)C1 (stereo not shown) [CBK137156C]	87.7%
Cc1nc(NS(=O)(=O)c2cc(Br)c(Cl)s2)sc1C(=O)O [CBK045560]	96%
Cc1nn(CC(=O)N(C)C2CCCCC2)c(=O)c2cc3occc3n12 [CBK283653]	92.4%
CC(C)C(CNCc1ccc(F)c(Cl)c1)c1ccnn1C (stereo not shown) [CBK305130]	82.9%
O=C(CSc1n[nH]c(=S)s1)NCCc1ccccc1 [CBK023445]	99.2%
Cc1cc(=O)[nH]c(C)c1C(=O)N1CCC(N2CCCC(CO)C2)CC1 (stereo not shown) [CBK307158]	103%
Cc1c(OCc2ccc(C(=O)O)cc2)ccc2c(-c3ccccc3)cc(=O)oc12 [CBK296080]	117%
CS(=O)(=O)N1CC2(CCN(CC(=O)c3ccsc3)CC2)c2ccccc21 [CBK144595T]	87%
CNC(=O)C1(Cc2ccccc2-c2cccs2)CCN(C(=O)CCc2ccccc2)CC1 [CBK285900]	108%
COCCNC(=O)c1cc(-c2ccc(C)cc2)nc2c1cnn2C(C)C [CBK305033]	93.8%
O=C(O)c1cc2ncc(-c3n[nH]cc3[N+](=O)[O-])cn2n1 [CBK269072]	100%
COc1nn(CC(=O)Nc2cccc(CCc3ccncc3)c2)c(=O)c2ccccc12 [CBK285560]	94.5%
COC(=O)Nc1cc2sccc2nc1C(F)(F)F [CBK019229]	80%
O=C(Cc1ccsc1)N1CCCC2(CCN(Cc3ccccc3)C2)C1 (stereo not shown) [CBK136868]	86.7%
COCc1cn([C@H]2CO[C@H]3[C@@H]2OC[C@H]3OC)nn1 [CBK289490]	89.9%
COC(=O)c1c(NC(=O)Cn2ccc([N+](=O)[O-])n2)sc2c1CCCC2 [CBK268960]	116%
CC1=NN(c2ccccc2F)C(=O)C1 [CBK067773]	96.8%
CCN1CCN(S(=O)(=O)c2ccc(Br)cc2)CC1 [CBK100197]	99.7%
Cc1ccn(CCNC(=O)Cc2coc3cc(C)c(C)cc23)n1 [CBK282578]	107%
O=C1NCCNC(=O)C2(C/C=C/COc3ccccc31)CCCNC2 (stereo not shown) [CBK292171]	115%

Compound	viability at 28.5 h, 10 µM
O=C(CSc1nnc(-c2ccc(Cl)cc2)n1-c1ccccc1)N/N=C/c1ccco1 [CBK262996]	91.6%
O=C(CSc1nc2ccccc2nc1N1CCCC1)N1CCN(c2ccccc2)CC1 [CBK293977]	86.5%
O=C(CCCOc1ccc(Cl)cc1Cl)NO [CBK288436]	81.7%
N#CCCN(CCC#N)C(=O)CN1C(=O)c2ccccc2C1=O [CBK267100]	89%
COc1cccc2sc(Nc3nnc(-c4cccs4)o3)nc12 [CBK287473]	85.4%
CN(C)CCCNC(=O)c1ccc(/C=N/O)nc1 [CBK288489]	121%
CCOC(=O)c1ccc2ncc3c(=O)nc(N)sc3c2c1 [CBK291218]	83.7%
O=C(O)c1ccc(-c2c(Cl)cc([N+](=O)[O-])cc2Cl)o1 [CBK026623]	102%
CC(C)c1ccc(S(=O)(=O)NCc2ccc(F)c(F)c2F)cc1 [CBK044717]	102%
Cc1cc(N2CCN(c3ccc(O)cc3)CC2)n2nc(-c3nccn3C)cc2n1 [CBK286188]	91.2%
CCOC(=O)c1c(-c2ccc(-c3ccccc3)cc2)csc1NC(=O)c1ccccc1C(=O)O [CBK296096]	106%
O=C1COc2ccccc2CCCC[C@@H]2CN(C(=O)Cn3ccc(=O)[nH]c3=O)CC[C@H]2N1 [CBK292048]	102%
Cc1nc(C)c(C(=O)NCC2CCCOC2)s1 (stereo not shown) [CBK282194]	97.2%
Cc1noc(C)c1CC(=O)N(C)CCN1CCCCC1 [CBK281855]	88.8%
O=C(N/N=C/c1cc(Br)cc(Br)c1O)C(Oc1ccccc1)Oc1ccccc1 [CBK262164]	95.6%
CN1CCC(N2CCN(C(=O)c3cncc(-c4[nH]nnc4-c4ccccc4)c3)CC2)CC1 [CBK160327]	98.3%
O=C(C1CCC1)N1CCC(n2c(=O)[nH]c3ccccc32)CC1 [CBK149709]	108%
CCN(Cc1cccnc1)C(CC1CCCCC1)c1ccccc1 (stereo not shown) [CBK061673]	98%
O=C(O)c1cc(NC(=O)C(c2ccccc2)c2ccccc2)cc(C(=O)O)c1 [CBK261191]	93.2%
c1ccc(CNc2nc(-c3ccco3)cn3ccnc23)cc1 [CBK037955]	90.6%
